Test results: patent US6423335B1, “Modified milk powder composition” (priority 1999, dated 2002)

Tests used:
Assay type in all cases: in vivo, rats (the Donryu strain)
[1] = Low protein diet feeding in rats: body weight, weight of tissues, BUN, blood profile (Example 1); details: for efficiency of protein utilization of feed / feed efficiency: versus 3% protein diet group; for level of platelets: versus suppression in 3% protein diet group
Source text: (§1) Four-week-age male rats (the Donryu strain) were fed 20% protein diet for one week. Then, glutamine (Gln) and glutamic acid (Glu) each were mixed into 3% protein diet at the level of 5% (w/w) and offered to the rats for three weeks. Also, a 20% protein diet group and a 3% protein diet group were set as controls. Upon each rat, body weight, weight of tissues, blood urea nitrogen (BUN), the level of leukocytes, the level of erythrocytes, hematocrit, the level of platelets, and production of TNF-α by peritoneal macrophage as an index of immune response were determined.

peritoneal macrophage [2] = experiment: Production of TNF-α by peritoneal macrophage as an index of immune response (Example 1); details: 5% (w/w) in 3% protein diet, three weeks; versus suppression in 3% protein diet group
Source text: as §1

[3] = Commercial modified milk powder feeding in rats: body weight, weight of tissues, BUN, blood profile (Example 2); details: two weeks
Source text: (§2) Then, using commercial modified milk powder (milk serum protein, soybean oil, lactose, and various vitamins and minerals were mixed; level of proteins was from 12 to 13% by weight) as a control, glutamine ([…] became 2, 5, 8, or 40%), and each diet was offered (free ingestion) for two weeks. Upon each rat, body weight, weight of tissues, blood urea nitrogen (BUN), the level of leukocytes, the level of erythrocytes, hematocrit, the level of platelets, and production of TNF-α by peritoneal macrophage as an index of immune response were measured.

peritoneal macrophage [4] = experiment: Production of TNF-α by peritoneal macrophage as an index of immune response (Example 2); details: two weeks
Source text: as §2

[5] = 5% (w/w) in 3% protein diet, three weeks
[6] = male rats, 5% (w/w) in 3% protein diet, three weeks
[7] = 0.3% Gln in modified milk powder
[8] = 0.65% Gln in modified milk powder
[9] = 1.5% Gln group, modified milk powder

For `N[C@@H](CCC(=O)O)C(=O)O` [Glu, glutamic acid], the “efficiency of protein utilization of feed” value [1, 5] was “this beneficial phenomenon was not observed”, the feed efficiency [1, 5] was “this beneficial phenomenon was not observed” and the level of platelets [1, 5] was “no improvement”. For the same compound, the Blood urea nitrogen [1, 6] was 18.8 ± 2.9 mg/dL, the “Body weight at the end of experiment” value [1, 6] was 180.5 ± 3.8 and the “production of TNF-α by peritoneal macrophage” value (peritoneal macrophage [2]) was “no improvement”.
In the case of `NC(=O)CC[C@H](N)C(=O)O` [Gln, glutamine], the “remarkable decrease of body weight on low protein diet” value ([1]; 5% (w/w) in 3% protein diet, three weeks, compared with 3% protein diet group) is reported as “this phenomenon was observed”, the “efficiency of protein utilization of feed” value [1, 5] is reported as “higher than those in the 3% protein diet group” and the feed efficiency [1, 5] is reported as “higher than those in the 3% protein diet group”. For the same compound, the level of platelets [1, 5] was “improvement was observed”, the “Body weight at the end of experiment” value [1, 6] was 200.2 ± 3.1 and the Blood urea nitrogen ([1]; rat, in vivo) was 18.9 ± 2.1 mg/dL. For the same compound, the “production of TNF-α by peritoneal macrophage” value (peritoneal macrophage [2]) was “improvement was observed”, the Blood urea nitrogen [3, 7] was 20.5 mg/dL and the “Body weight at the end of experiment” value [3, 7] was 233.1. For the same compound, the “body weight and any of the other indexes versus control group (Gln 0%)” value [3, 7] was “no difference”, the Blood urea nitrogen [3, 8] was 22.1 mg/dL and the “Body weight at the end of experiment” value [3, 8] was 238.2. For the same compound, the “body weight versus control group” value [3, 8] was “a slight difference”, the Blood urea nitrogen ([3]; 1% Gln in modified milk powder) was 23.4 mg/dL and the “Body weight at the end of experiment” value ([3]; 1% Gln in modified milk powder) was 241.7. The “body weight as compared with the control group” value [3, 9] was “there were observed differences”, the “level of platelets as compared with the control group” value [3, 9] was “there were observed differences” and the Blood urea nitrogen ([3]; 5% Gln in modified milk powder) was 24.1 mg/dL. The “Body weight at the end of experiment” value ([3]; 5% Gln in modified milk powder) was 245.8, the “production of TNF-α by peritoneal macrophage versus control group” value (peritoneal macrophage [4]; [8]) was “higher than that at the control group” and the “production of TNF-α by peritoneal macrophage as compared with the control group” value (peritoneal macrophage [4]; [9]) was “there were observed differences”.
